The term AUC(0-t) denotes exposure summed from dosing to a finite time, without extrapolation to infinity. One may read the half-life as the time in which the quantity being followed falls by half. As a reminder, the EC50 is the concentration at which the effect is half-maximal. Usually Cmax stands for the maximum level reached in the sampled fluid or tissue. Usually Tmax stands for the time from dosing to the highest level. By share remaining is commonly meant what is left of the initial amount, in per cent.

The source of these data is patent US20260001928A1 (CORTERIA PHARMACEUTICALS, priority 2022, published 2026).

*1 amine or outer side, *2 acyl side, *3 side chain or, on linkers, in order; H or OH if unused. Where a SMILES comes first, the peptide text is derived from it. Side-chain parts run from the residue outwards. [ ]: non-standard residue; d: D form. The star is where a group is joined. C20 diacid = O=C(O)CCCCCCCCCCCCCCCCCCC(=O)*; γGlu = O=C(O)[C@H](CCC(=O)[*:2])N[*:1]; NMeI = CC[C@H](C)[C@H](NC)C(=O)O; Aib = CC(C)(N)C(=O)O

The nature of series [1]: Pharmacokinetics in male Sprague Dawley rats after subcutaneous administration. The format is in vivo. Conditions: plasma, rat, IV.
Another series deals with T1, human CRF2a receptor (Homo sapiens, UniProt Q13324).
T1 construct: expressed in transfected cells; host or cells: TeloHEAC cells
T1 sequence (Q13324 1-411): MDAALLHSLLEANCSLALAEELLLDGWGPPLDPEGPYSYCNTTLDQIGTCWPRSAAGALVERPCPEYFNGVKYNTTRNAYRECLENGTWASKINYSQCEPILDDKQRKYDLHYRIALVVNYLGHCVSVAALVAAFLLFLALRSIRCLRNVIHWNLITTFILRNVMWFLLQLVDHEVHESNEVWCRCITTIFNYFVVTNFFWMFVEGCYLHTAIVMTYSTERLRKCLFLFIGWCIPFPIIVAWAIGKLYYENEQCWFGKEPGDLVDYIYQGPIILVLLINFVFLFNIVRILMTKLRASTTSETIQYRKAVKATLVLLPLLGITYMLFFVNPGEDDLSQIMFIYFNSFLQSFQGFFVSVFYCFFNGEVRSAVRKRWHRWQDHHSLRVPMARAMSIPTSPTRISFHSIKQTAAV
Kind of series: Activity at human CRF2a receptor, cAMP functional assay in TeloHEAC cells. The format is cell-based. The conditions noted are these: TeloHEAC cells stably expressing human CRF2a receptor, relative to urocortin 2 (100 nM = 100%). The essentials:
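cAMP accumulation was measured by HTRF 665/620 nm ratio after 30 min at 37° C compound exposure (16 twofold dilutions) of CRF2a-expressing TeloHEAC cells, 10000/well, in HEPES-buffered HBSS plus IBMX. Activity was normalised to urocortin 2 at 100 nM (100%), and EC50 was the concentration giving half-maximal activation.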

The nature of series [2]: Pharmacokinetics in male Sprague Dawley rats after subcutaneous administration. The format is in vivo. The conditions noted are these: plasma, rat, SC, 0.05 mg/kg.
Series [3] is described as follows: In vitro subcutaneous tissue supernatant (SCts) stability and metabolite identification, rat. The format is in vitro ADME. More on the design: remaining at 2 h: dose or concentration left out as unconfirmed. Conditions: male, Sprague Dawley; rat subcutaneous tissue supernatant (SCts), 37° C, 2 h.
The target in another series is T2, rat CRF2 a (Rattus norvegicus, UniProt P47866).
T2 construct: host or cells: A7R5 rat aortic smooth muscle cells
T2 sequence (P47866 27-431 isoform P47866-2 limits assumed): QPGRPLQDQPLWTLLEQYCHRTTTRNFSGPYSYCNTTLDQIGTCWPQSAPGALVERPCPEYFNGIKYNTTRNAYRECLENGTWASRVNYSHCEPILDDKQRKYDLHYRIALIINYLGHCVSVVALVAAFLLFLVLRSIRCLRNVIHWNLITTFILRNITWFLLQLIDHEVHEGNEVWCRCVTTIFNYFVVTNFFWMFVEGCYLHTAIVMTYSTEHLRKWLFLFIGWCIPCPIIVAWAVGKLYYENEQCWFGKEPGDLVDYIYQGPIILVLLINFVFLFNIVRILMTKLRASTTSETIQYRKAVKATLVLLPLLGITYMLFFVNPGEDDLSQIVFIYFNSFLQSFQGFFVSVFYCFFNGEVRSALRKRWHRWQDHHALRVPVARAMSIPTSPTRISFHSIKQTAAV
Nature of the series: Activity at rat CRF2 a, cAMP assay in A7R5 rat aortic smooth muscle cells. Type of series: cell-based. Conditions: 0% HSA, 100% = Sauvagine at 100 nM. On the procedure: The A7R5 rat aortic smooth muscle cell line used in this study was purchased from ATCC.
Cells were grown in a 10 cm dish at 37° C./5% CO2 in medium (DMEM/10% FBS) to near confluence. At that stage, cells were harvested, resuspended to 10 million/mL in culture medium and with 5% DMSO. 1 mL vial aliquots were slowly frozen to −80° C. in isopropanol and then transferred in liquid nitrogen for storage.
These vials were used to run the experiment following the procedure reported in the previous paragraph, except for the compound used in the control well to define the 100% activation (Sauvagine at 100 nM) and the cell density (final cell density: 5000 cells/well).
A general note: Cyclic AMP is a second messenger, typically raised through Gs and lowered through Gi signalling.

The target of another series is T3, CFR1R receptor (Homo sapiens, UniProt P34998).
T3 construct: host or cells: CHO-K1 (clone 2)
T3 sequence (P34998 24-415): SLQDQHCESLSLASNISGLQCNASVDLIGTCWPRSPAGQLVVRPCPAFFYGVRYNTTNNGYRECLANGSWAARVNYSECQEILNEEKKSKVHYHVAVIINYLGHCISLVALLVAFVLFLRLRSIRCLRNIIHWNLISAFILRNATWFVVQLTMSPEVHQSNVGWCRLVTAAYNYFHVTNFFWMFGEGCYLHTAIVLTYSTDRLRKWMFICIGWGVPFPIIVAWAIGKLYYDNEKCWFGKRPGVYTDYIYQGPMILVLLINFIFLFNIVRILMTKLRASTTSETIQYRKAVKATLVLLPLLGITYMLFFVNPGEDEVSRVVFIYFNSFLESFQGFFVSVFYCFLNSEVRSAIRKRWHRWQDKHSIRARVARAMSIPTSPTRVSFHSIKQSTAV
Nature of the series: Activity at anti-target CFR1R receptor, cAMP assay in CRF1R-overexpression CHO-K1 cells. The format is cell-based. Conditions: 100% = Sauvagine at 100 nM; for EC50: cAMP. The essentials: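 Clone 2; cryopreserved stocks (10% DMSO); 4000 cells/well final; 100% activation = Sauvagine 100 nM; otherwise as TeloHAEC protocol.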

Series [4] can be described thus: Chemical stability in buffer (pH 7.4 / pH 4.5), % purity loss. The format is physicochemical. Conditions: 100 mM phosphate buffer pH 7.4; 40° C. vs 5° C.; 14 or 28 days. The essentials:
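LC-UV gave % loss after 14 or 28 days of storage at 5 °C or 40 °C. Samples were diluted supernatants from compound incubated 1 h at room temperature at 10 mg/mL target, in 100 mM acetate pH 4.5 or 100 mM phosphate pH 7.4.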

In series [1] (0.025 mg/kg), `CC[C@H](C)[C@H](NC)C(=O)N[C@H](C(=O)N[C@@H](CC(C)C)C(=O)N[C@@H](CO)C(=O)N[C@@H](CC(C)C)C(=O)N[C@@H](CC(=O)O)C(=O)N[C@@H](C(=O)N1CCC[C@H]1C(=O)N[C@H](C(=O)N[C@@H](CCCCN)C(=O)N[C@@H](CC(C)C)C(=O)N[C@@H](CCCCNC(=O)CC[C@H](NC(=O)CCCCCCCCCCCCCCCCCCC(=O)O)C(=O)O)C(=O)N[C@@H](CCCCN)C(=O)N[C@H](C(=O)N[C@@H](CC(C)C)C(=O)N[C@@H](CC(C)C)C(=O)N[C@@H](CCC(=O)O)C(=O)N[C@@H](CCC(N)=O)C(=O)N[C@@H](CCC(=O)O)C(=O)N[C@@H](CCCCN)C(=O)N[C@@H](CCC(N)=O)C(=O)N[C@@H](CCCCN)C(=O)N[C@@H](C)C(=O)N[C@@H](CCC(N)=O)C(=O)N[C@@H](CCCNC(=N)N)C(=O)N[C@@H](CCC(=O)O)C(=O)N[C@@H](CCC(N)=O)C(=O)N[C@@H](C)C(=O)N[C@@H](CCC(=O)O)C(=O)N[C@H](C(=O)N[C@@H](CC(N)=O)C(=O)NC(C)(C)C(=O)N[C@@H](CCC(N)=O)C(=O)N[C@H](C(=O)N[C@@H](CC(C)C)C(=O)N[C@@H](C)C(=O)N[C@@H](CCC(N)=O)C(=O)N[C@H](C(N)=O)C(C)C)[C@@H](C)CC)[C@@H](C)O)[C@@H](C)CC)[C@@H](C)CC)C(C)C)C(C)C` [compound 217] (H-[NMeI]VLSLD[dV]PIKLK([γGlu-C20 diacid])KILLEQEKQKAQREQAETN[Aib]QILAQV-NH2) showed an AUC(0-t) of 4120 ng·h/mL and a half-life of 8 h. On human CRF2a receptor, this compound registered an EC50 of 0.09 nM. In addition, in series [2], the AUC(0-t) was 4040 ng·h/mL, the Cmax was found to be 138 ng/mL, the time to peak (Tmax) turned out to be 8 h and the half-life was 12 h. The share remaining at 2 h in series [3] turned out to be 76%. This compound also yielded an EC50 at rat CRF2 a of 0.06 nM. At CFR1R receptor, the “Emax (% I)” value was 33 % I and the EC50 was more than 250 nM. The “Buffer stability pH 7.4 % purity loss” value in series [4] is reported as 1.8/Not Tested %.

In series [1] (0.05 mg/kg), `CC[C@H](C)[C@H](NC)C(=O)N[C@H](C(=O)N[C@@H](CC(C)C)C(=O)N[C@@H](CO)C(=O)N[C@@H](CC(C)C)C(=O)N[C@@H](CC(=O)O)C(=O)N[C@@H](C(=O)N1CCC[C@H]1C(=O)N[C@H](C(=O)N[C@@H](CCCCN)C(=O)N[C@@H](CC(C)C)C(=O)N[C@@H](CCCCNC(=O)CC[C@H](NC(=O)CC[C@H](NC(=O)CCCCCCCCCCCCCCCCCCC(=O)O)C(=O)O)C(=O)O)C(=O)N[C@@H](CCCCN)C(=O)N[C@H](C(=O)N[C@@H](CC(C)C)C(=O)N[C@@H](CC(C)C)C(=O)N[C@@H](CCC(=O)O)C(=O)N[C@@H](CCC(N)=O)C(=O)N[C@@H](CCC(=O)O)C(=O)N[C@@H](CCCCN)C(=O)N[C@@H](CCC(N)=O)C(=O)N[C@@H](CCCCN)C(=O)N[C@@H](CCC(=O)O)C(=O)N[C@@H](CCC(N)=O)C(=O)N[C@@H](CCCNC(=N)N)C(=O)N[C@@H](CCC(=O)O)C(=O)N[C@@H](CCC(N)=O)C(=O)N[C@@H](C)C(=O)N[C@@H](CCC(=O)O)C(=O)N[C@H](C(=O)N[C@@H](CC(N)=O)C(=O)NC(C)(C)C(=O)N[C@@H](CCC(N)=O)C(=O)N[C@H](C(=O)N[C@@H](CC(C)C)C(=O)N[C@@H](C)C(=O)N[C@@H](CCC(N)=O)C(=O)N[C@H](C(N)=O)C(C)C)[C@@H](C)CC)[C@@H](C)O)[C@@H](C)CC)[C@@H](C)CC)C(C)C)C(C)C` [compound 242] (H-[NMeI]VLSLD[dV]PIKLK([γGlu-γGlu-C20 diacid])KILLEQEKQKEQREQAETN[Aib]QILAQV-NH2) gave an AUC(0-t) of 7970 ng·h/mL and a half-life of 14 h. The same compound came in with an EC50 at human CRF2a receptor of 0.22 nM. Further, in series [3], the fraction remaining at 2 h worked out at 68%. For the same compound, a half-maximal effect on rat CRF2 a (EC50) was put at 0.4 nM. In addition, on CFR1R receptor, the “Emax (% I)” value turned out to be 6 % I and the 50% effective concentration (EC50) is more than 250 nM. Moreover, in series [4], the “Buffer stability pH 7.4 % purity loss” value is given as 0.0/Not Tested %.
